# Measured values published in article PMC11838108, “Screening and evaluation of novel DPP-IV inhibitory peptides in goat milk based on molecular docking and molecular dynamics simulation” (Food Chemistry: X, 2025).
# Where two headings read alike, the source gives them in different places. Where no end group is shown, it is not given here.
# Columns and labels:
# [1] = target: angiotensin-converting enzyme (ACE); conditions: ref Chen, Yu, Wu, & He, 2022, read-out: ACE inhibitory IC50; cited from earlier work
# DPP-IV [2] = target: T1, DPP-IV (Homo sapiens, UniProt P27487); experiment: DPP-IV inhibition by the peptides (Gly-Pro-pNA substrate); assay type: biochemical; conditions: Gly-Pro-pNA 0.2 mM, DPP-IV 0.0025 U/mL, 60 min; read-out: DPP-IV inhibitory activity IC50
# T1 sequence (P27487 whole entry): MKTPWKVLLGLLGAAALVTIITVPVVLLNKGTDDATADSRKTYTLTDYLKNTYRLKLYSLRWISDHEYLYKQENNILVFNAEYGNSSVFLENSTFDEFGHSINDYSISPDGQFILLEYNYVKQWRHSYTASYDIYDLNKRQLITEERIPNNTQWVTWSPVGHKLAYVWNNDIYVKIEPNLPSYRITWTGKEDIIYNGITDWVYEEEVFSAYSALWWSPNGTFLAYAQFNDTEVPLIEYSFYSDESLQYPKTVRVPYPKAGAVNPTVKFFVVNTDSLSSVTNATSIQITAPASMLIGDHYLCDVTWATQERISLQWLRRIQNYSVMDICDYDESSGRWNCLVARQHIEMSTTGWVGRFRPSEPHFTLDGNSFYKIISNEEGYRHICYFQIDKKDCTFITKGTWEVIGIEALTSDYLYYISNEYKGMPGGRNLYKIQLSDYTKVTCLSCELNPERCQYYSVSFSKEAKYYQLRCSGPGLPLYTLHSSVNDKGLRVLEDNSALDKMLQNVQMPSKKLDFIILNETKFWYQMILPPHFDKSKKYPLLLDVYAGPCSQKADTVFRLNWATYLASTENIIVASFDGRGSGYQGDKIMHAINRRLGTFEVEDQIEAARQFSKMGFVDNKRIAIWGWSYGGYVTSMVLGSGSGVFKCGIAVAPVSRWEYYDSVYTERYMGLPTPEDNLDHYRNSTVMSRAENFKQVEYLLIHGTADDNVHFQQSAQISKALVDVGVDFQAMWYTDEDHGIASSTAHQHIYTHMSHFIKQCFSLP
# Protocol: Peptides were prepared at various concentrations and transferred to a 96-well microplate containing Gly-Pro-pNA (0.2 mM). The microplates were then incubated for 5 min. Subsequently, DPP-IV (0.0025 U/mL) was added, followed by an additional incubation for 60 min. […] The peptides, Gly-Pro-pNA, and DPP-IV were then dissolved in Tris-HCl (0.1 M). Tris-HCl was used as the negative control with DPP-IV but without the peptides and as the blank control without the peptides or DPP-IV.
# [3] = Stability of peptides after in vitro simulated digestion (RP-HPLC); assay type: in vitro ADME; set-up: remaining at 2 min: dose or concentration left out as unconfirmed; conditions: for Oral-gastric digestion (stability of peptide): after oral and gastric phase; for Oral-gastric digestion (stability of peptide) / Oral-gastric-intestinal digestion (stability of peptide) / remaining at 2 min: RP-HPLC peak area; for Oral-gastric-intestinal digestion (stability of peptide): after oral, gastric and intestinal phase; for decrease of stability after intestinal digestion: relative to oral-gastric digestion; for remaining at 2 min: simulated salivary fluid (SSF) with salivary amylase, after oral phase, read-out: Oral digestion (stability of peptide)
# Protocol: (§1) Based on the method described by Brodkorb et al. ([Brodkorb et al., 2019]), the following solutions were prepared: SSF, SGF, and SIF salt solutions, and salivary amylase, pepsin, and trypsin solutions.
# Each peptide was dissolved at a concentration of 1 mg/mL, and 0.094 mL of SSF, 0.001 mL of CaCl2·2H2O (0.3 M), 0.025 mL of salivary amylase (75 U/mL), and 0.005 mL of H2O were sequentially added, for a total volume of 0.25 mL. The mixture was then incubated in a 37 °C incubator for 2 min.
# Briefly, 0.25 mL of the oral digestion mixture was sequentially combined with 0.12 mL of SGF, 0.001 mL of CaCl2·2H2O (0.3 M), 0.048 mL of pepsin (2000 U/mL), 0.060 mL of SGF, 0.011 mL of H2O, and 0.010 mL of HCl (1 M), for a total volume of 0.5 mL. The mixture was then incubated in a 37 °C incubator for 2 h.
# A 0.50-mL sample of the gastric digestion mixture was successively combined with 0.195 mL of SIF, 0.001 mL of CaCl2·2H2O (0.3 M), 0.125 mL of trypsin (100 U/mL), 0.100 mL of SIF, and 0.079 mL of H2O. The mixture was then incubated in a 37 °C incubator for 2 h at a pH of 7.0.
# After oral, gastric, and intestinal digestion, the digestion mixture was filtered through a 0.22-μm sterile filter. The filtrate was stored at −20 °C for subsequent analysis.
# The in vitro simulated digestion experiments of the peptides were conducted in accordance with the method described by Hao et al., with minor modifications ([Hao et al., 2020]). The stability of peptides post-digestion was assessed by RP-HPLC (CAP-CELL PAK C18 AQ S-5, 10 mm × 150 mm column, Shiseido, Tokyo, Japan) with a detection wavelength of 228 nm. The formula for determining the peptide stability was as follows: Stability of peptides%=Pa/Pb×100 where Pa represents the peak area of the digested sample, and Pb represents the peak area of the reference sample.
# DPP-IV [4] = target: T1, DPP-IV; experiment: DPP-IV inhibitory activity of peptides after in vitro simulated digestion; assay type: biochemical; conditions: GL-6 at 130.68 μM, LY-5 at 179.52 μM; after oral-gastric-intestinal digestion
# Protocol: The method outlined by Nongonierma et al. ([Nongonierma & FitzGerald, 2013]) was adapted for our study. Peptides were prepared at various concentrations and transferred to a 96-well microplate containing Gly-Pro-pNA (0.2 mM). The microplates were then incubated for 5 min. Subsequently, DPP-IV (0.0025 U/mL) was added, followed by an additional incubation for 60 min. The absorbance of the mixture was measured at 405 nm. The peptides, Gly-Pro-pNA, and DPP-IV were then dissolved in Tris-HCl (0.1 M). Tris-HCl was used as the negative control with DPP-IV but without the peptides and as the blank control without the peptides or DPP-IV. Sitagliptin was used as the positive control instead of the peptides. The formula for calculating the inhibitory activity was as follows: DPP−IVinhibitory activity%=Ac−As/Ac−Ab×100 where absorbance values for the control, sample, and blank groups were designated as Ac, As, and Ab, respectively.
# as §1
# Each peptide was dissolved at a concentration of 1 mg/mL, and 0.094 mL of SSF, 0.001 mL of CaCl2·2H2O (0.3 M), 0.025 mL of salivary amylase (75 U/mL), and 0.005 mL of H2O were sequentially added, for a total volume of 0.25 mL. […]
# Caco-2 cells = experiment: Cytotoxicity assay (CCK-8); assay type: cell-based; conditions: 24 h, GL-6 0.195–3.11 mM, LY-5 0.193–3.07 mM
# Protocol: A peptide cytotoxicity assay using Caco-2 cells was conducted based on the method outlined by Hao et al. with minor modifications ([Hao et al., 2020]). Initially, the cells were evenly seeded on a 96-well plate with 100 μL of 2 × 10^4 cells. After seeding, the plate was placed in a sterile and CO2-enriched incubator. After a 24-h incubation, the medium was removed, and the adherent cells were used for subsequent experiments. The peptides were dissolved in the basal medium (DMEM) and cells were treated with different concentrations of peptides. After a 24-h incubation period, 10 μL of CCK-8 was added to each well and incubated with the cells. The absorbance at 450 nm was recorded to determine cell viability.
# The following formula was used to calculate cell viability, with cells cultured in the basal medium used as the control group for comparison: Cell viability%=Asample/Acontrol×100
# DPP-IV [5] = system: T2, DPP-IV; experiment: DPP-IV inhibitory activity in Caco-2 cells (Gly-Pro-AMC substrate); assay type: cell-based; conditions: peptide 2 mg/mL (GPFPLL 3.11 mM, LPYPY 3.07 mM), 24 h
# T2 construct: endogenous in cells; host or cells: Caco-2 cells (Haixing Biological Technology Co., Ltd.)
# Protocol: Caco-2 cells were seeded on a black 96-well plate at a density of 2 × 10^4 cells per well. Subsequently, the cells were treated with sample solutions at various concentrations and then further incubated for 24 h. After incubating, the peptide solutions and medium were removed from the wells, and 100 μL of the Gly-Pro-AMC substrate (50 μM) was added to each well and incubated for 10 min at 37 °C.
# DPP-IV [6] = conditions: cited from earlier work
# [7] = set-up: method as in Yin et al., 2022; conditions: ref Yin et al., 2022; cited from earlier work
substance,measurement,setting,value
CDF,IC50,[1],192 µM
EACF,IC50,[1],41.1 µM
GPFPILN [GPFPILN],IC50,DPP-IV [2],198 ± 14.9 µM
GPFPLL [GPFPLL],IC50,DPP-IV [2],131 ± 10.4 µM
same,Oral-gastric digestion (stability of peptide),[3],96.37%
same,Oral-gastric-intestinal digestion (stability of peptide),[3],69.48%
same,decrease of stability after intestinal digestion,[3],26.89%
same,remaining at 2 min,[3],99.6%
same,DPP-IV inhibitory rate after intestinal digestion,DPP-IV [4],31.90 % ± 1.80
same,cytotoxicity to Caco-2 cells,Caco-2 cells,Neither GL-6 nor LY-5 exhibited significant cytotoxicity
same,DPP-IV inhibition rate in Caco-2 cells,DPP-IV [5],46.53 % ± 3.48
IPYWTY,mode of inhibition of DPP-IV,"DPP-IV [6]; pea protein peptide, ref Zhang, Zhu, et al., 2022",competitive inhibition
LLSPP,stability after intestinal digestion,[7],80%
LPFYPN,mode of inhibition of DPP-IV,"DPP-IV [6]; coix seed protein peptide, ref Zhang et al., 2023",competitive inhibition
LPVGP,stability after intestinal digestion,[7],80%
LPYPY [LPYPY],IC50,DPP-IV [2],180 ± 18.9 µM
same,Oral-gastric digestion (stability of peptide),[3],97.60%
same,Oral-gastric-intestinal digestion (stability of peptide),[3],81.99%
same,decrease of stability after intestinal digestion,[3],15.61%
same,remaining at 2 min,[3],99.5%
same,DPP-IV inhibitory rate after intestinal digestion,DPP-IV [4],39.37 % ± 0.90
same,cytotoxicity to Caco-2 cells,Caco-2 cells,Neither GL-6 nor LY-5 exhibited significant cytotoxicity
same,DPP-IV inhibition rate in Caco-2 cells,DPP-IV [5],65.98 % ± 2.87
PPGIPYW,mode of inhibition of DPP-IV,"DPP-IV [6]; chickpea protein peptide, ref Zan et al., 2023",competitive inhibition
